Reference: patent publication US9585892B2, “Solid forms comprising N-(5-tert-butyl-isoxazol-3-yl)-N′-{4-[7-(2-morpholin-4-yl-ethoxy)imidazo[2,1-b][1,3]benzothiazol-2-yl]phenyl}urea, compositions thereof, and uses therewith” (AMBIT BIOSCIENCES CORPORATION, priority 2007, dated 2017)
Where a name gives a salt, the structure may show the parent alone. Read-outs that look alike come from different tables or passages of the source. One block for each compound: values may come before it.

What was measured:
Format in all cases: physicochemical
[1] = Solubility measurements (solvent aliquot addition, visual inspection)
Protocol: A weighed sample was treated with aliquots of the test solvent at room temperature or elevated temperature. Complete dissolution of the test material was determined by visual inspection. Solubility was estimated based on the total solvent used to provide complete dissolution. The actual solubility may be greater than the value calculated because of the use of solvent aliquots that were too large or due to a slow rate of dissolution. […] If complete dissolution was achieved as a result of only one aliquot addition, the solubility is expressed as “greater than.”

[2] = Stress experiments (temperature or relative humidity, XRPD after stress)
Protocol: Stress Experiments. Solids were stressed under different temperature or relative humidity (RH) environments for a measured time period. Specific RH values were achieved by placing the sample inside sealed chambers containing saturated salt solutions. The salt solutions were selected and prepared following an ASTM standard procedure. Samples were analyzed by XRPD immediately after removal from the stress environment.
(§1) X-ray powder diffraction analyses were performed on an Inel XRG-3000 diffractometer, equipped with a curved position-sensitive detector with a […] of 120°. Real time data was collected using Cu Kα radiation starting at approximately 4 ° 2θ at a resolution of 0.03 ° 2θ. The tube voltage and amperage were set to 40 kV and 30 mA, respectively. […] Samples were prepared for analysis by packing them into thin-walled glass capillaries. Each capillary was mounted onto a goniometer head that is motorized to permit spinning of the capillary during data acquisition. Instrument calibration was performed daily using a silicon reference standard.

[3] = Dynamic vapor sorption/desorption (moisture balance); conditions: for post-moisture balance XRPD (resulting material): after sorption/desorption cycle 5-95-5% RH; for weight loss upon initial equilibration: equilibrium at 5% RH; for weight gain on sorption / water corresponding to the weight gain on sorption: from 5 to 95% RH; for weight loss on desorption: from 95 to 5% RH
Protocol: Data were collected on a VTI SGA-100 moisture balance system. For sorption isotherms, a sorption range of about 5 to about 95% relative humidity (RH) and a desorption range of about 95 to about 5% RH in 10% RH increments were used for analysis. The samples were not dried prior to analysis. Equilibrium criteria used for analysis were less than 0.0100% weight change in 5 minutes with a maximum equilibration time of 3 hours if the weight criterion was not met. Data were not corrected for the initial moisture content of the samples.

[4] = Mechanical stress studies (compression, grinding, milling; XRPD after stress)
Protocol: Grinding. […] […] The solids were isolated and analyzed.
as §1

[5] = Oven: 40° C., 4 days, listed as A
[6] = 75% RH, ambient temperature, 2 and 4 days

solubility ([1]; 1,4-dioxane, organic solvent or mixture, thermodynamic from solid, 1,4-Dioxane, Ambient, read-out: Approximate Solubility): < 2000 µg/mL
solubility ([1]; 2-butanone, organic solvent or mixture, thermodynamic from solid, 2-Butanone, Ambient, read-out: Approximate Solubility): < 2000 µg/mL
solubility ([1]; acetone, organic solvent or mixture, thermodynamic from solid, Acetone, Ambient, read-out: Approximate Solubility): < 2000 µg/mL
solubility ([1]; acetonitrile, organic solvent or mixture, thermodynamic from solid, Acetonitrile (ACN), Ambient, read-out: Approximate Solubility): < 2000 µg/mL
solubility ([1]; acetonitrile/water (1:1), 60 °C, aqueous with cosolvent or surfactant or cyclodextrin, thermodynamic from solid, ACN/water (1:1), 60° C., read-out: Approximate Solubility): ≥ 110000 µg/mL
solubility ([1]; dichloromethane, organic solvent or mixture, thermodynamic from solid, Dichloromethane (DCM), Ambient, read-out: Approximate Solubility): < 2000 µg/mL
solubility ([1]; ethanol, organic solvent or mixture, thermodynamic from solid, Ethanol (EtOH), Ambient, read-out: Approximate Solubility): 1000 µg/mL
solubility ([1]; ethanol/water (4:1), 60 °C, organic solvent or mixture, thermodynamic from solid, Ethanol/water (4:1), 60° C., read-out: Approximate Solubility): ≥ 39000 µg/mL
solubility ([1]; ethanol/water (24:1), 60 °C, organic solvent or mixture, thermodynamic from solid, Ethanol/water (24:1), 60° C., read-out: Approximate Solubility): < 2000 µg/mL
solubility ([1]; ethyl acetate, organic solvent or mixture, thermodynamic from solid, Ethyl Acetate (EtOAc), Ambient, read-out: Approximate Solubility): < 2000 µg/mL
solubility ([1]; isopropanol, organic solvent or mixture, thermodynamic from solid, Isopropanol (IPA), Ambient, read-out: Approximate Solubility): < 2000 µg/mL
solubility ([1]; isopropanol/water (24:1), 60 °C, organic solvent or mixture, thermodynamic from solid, Isopropanol/water (24:1), 60° C., read-out: Approximate Solubility): < 2000 µg/mL
solubility ([1]; methanol, organic solvent or mixture, thermodynamic from solid, Methanol (MeOH), Ambient, read-out: Approximate Solubility): 3000 µg/mL
solubility ([1]; nitromethane, organic solvent or mixture, thermodynamic from solid, Nitromethane, Ambient, read-out: Approximate Solubility): < 2000 µg/mL
solubility ([1]; tetrahydrofuran, organic solvent or mixture, thermodynamic from solid, Tetrahydrofuran (THF), Ambient, read-out: Approximate Solubility): < 2000 µg/mL
solubility ([1]; trifluoroethanol, organic solvent or mixture, thermodynamic from solid, Trifluoroethanol (TFE), Ambient, read-out: Approximate Solubility): > 72000 µg/mL
solubility ([1]; trifluorotoluene, organic solvent or mixture, thermodynamic from solid, Trifluorotoluene (TFT), Ambient, read-out: Approximate Solubility): < 2000 µg/mL
solubility ([1]; water, thermodynamic from solid, Water, Ambient, certain samples formed a gel upon addition of water, actual solubility may differ substantially, read-out: Approximate Solubility): 36000 µg/mL
weight gain ([2]; 75% RH, 1 day): 1 day: 4.2% weight gain
weight gain ([2]; 75% RH, 2 days): 2 days: 3.8% weight gain
XRPD Result after stress ([2]; 75% RH, ambient temperature, 4 days): Form D
XRPD Result after stress ([2]; Oven: 40° C., 4 days): mixture of Form A and Form E
XRPD Result after stress [2, 5]: A + E
weight loss [2, 5]: 4 days: 3.0% weight loss
post-moisture balance XRPD (resulting material) [3]: Form D
post-moisture balance XRPD (resulting material) ([3]; listed as A): FORM D
weight loss upon initial equilibration [3]: about 3.9%
weight loss upon initial equilibration ([3]; listed as A): ~3.9% WEIGHT LOSS UPON EQUILIBRIUM
weight gain on sorption [3]: about 16.7%
water corresponding to the weight gain on sorption ([3]; listed as A): CORRESPONDING TO 6.5 MOLES OF WATER.
weight gain on sorption ([3]; listed as A): ~16.7% WEIGHT GAIN FROM 5 TO 95% RH,
weight loss on desorption [3]: about 16.7%
weight loss on desorption ([3]; listed as A): ~16.6% WEIGHT LOSS FROM 95 TO 5% RH.
SMILES: CC(C)(C)c1cc(NC(=O)Nc2ccc(-c3cn4c(n3)sc3cc(OCCN5CCOCC5)ccc34)cc2)no1 [Form A of the HCl salt of Compound B1, N-(5-tert-butyl-isoxazol-3-yl)-N′-{4-[7-(2-morpholin-4-yl-ethoxy)imidazo[2,1-b][1,3]benzothiazol-2-yl]phenyl}urea]

APPROXIMATE SOLUBILITY ([1]; 2,2,2-TRIFLUOROETHANOL, 67 ° C.): 53 mg/mL
APPROXIMATE SOLUBILITY ([1]; 2,2,2-TRIFLUOROETHANOL, AMBIENT): 52 mg/mL
APPROXIMATE SOLUBILITY ([1]; 2-BUTANONE (MEK), 62 ° C.): <1 mg/mL
APPROXIMATE SOLUBILITY ([1]; 2-BUTANONE (MEK), AMBIENT): <1 mg/mL
APPROXIMATE SOLUBILITY ([1]; ACETONE, 54 ° C.): <1 mg/mL
APPROXIMATE SOLUBILITY ([1]; ACETONE, AMBIENT): <1 mg/mL
APPROXIMATE SOLUBILITY ([1]; ACETONE:WATER 50:50, AMBIENT): 13 mg/mL
APPROXIMATE SOLUBILITY ([1]; ACETONITRILE, 60 ° C.): <1 mg/mL
APPROXIMATE SOLUBILITY ([1]; ACETONITRILE, AMBIENT): <1 mg/mL
APPROXIMATE SOLUBILITY ([1]; ACETONITRILE:WATER 50:50, AMBIENT): 51 mg/mL
APPROXIMATE SOLUBILITY ([1]; DICHLOROMETHANE, AMBIENT): <1 mg/mL
APPROXIMATE SOLUBILITY ([1]; DIOXANE:WATER 50:50, 62 ° C.): 23 mg/mL
APPROXIMATE SOLUBILITY ([1]; ETHANOL, 60 ° C.): <2 mg/mL
APPROXIMATE SOLUBILITY ([1]; ETHANOL, AMBIENT): <1 mg/mL
APPROXIMATE SOLUBILITY ([1]; ETHANOL:WATER 50:50, AMBIENT): 13 mg/mL
APPROXIMATE SOLUBILITY ([1]; ETHYL ACETATE, AMBIENT): <1 mg/mL
APPROXIMATE SOLUBILITY ([1]; ISOPROPANOL, 63 ° C.): <1 mg/mL
APPROXIMATE SOLUBILITY ([1]; ISOPROPANOL, AMBIENT): <1 mg/mL
APPROXIMATE SOLUBILITY ([1]; ISOPROPANOL:WATER 20:80, 62 ° C.): 54 mg/mL
APPROXIMATE SOLUBILITY ([1]; ISOPROPANOL:WATER 20:80, AMBIENT): 5 mg/mL
APPROXIMATE SOLUBILITY ([1]; METHANOL, 62 ° C.): 2 mg/mL
APPROXIMATE SOLUBILITY ([1]; METHANOL, AMBIENT): 1 mg/mL
APPROXIMATE SOLUBILITY ([1]; NITROMETHANE, 64 ° C.): <1 mg/mL
APPROXIMATE SOLUBILITY ([1]; NITROMETHANE, AMBIENT): <1 mg/mL
APPROXIMATE SOLUBILITY ([1]; P-DIOXANE, 63 ° C.): <1 mg/mL
APPROXIMATE SOLUBILITY ([1]; P-DIOXANE, AMBIENT): <1 mg/mL
APPROXIMATE SOLUBILITY ([1]; P-DIOXANE:WATER 50:50, AMBIENT): 6 mg/mL
APPROXIMATE SOLUBILITY ([1]; TETRAHYDROFURAN, 64 ° C.): <1 mg/mL
APPROXIMATE SOLUBILITY ([1]; TETRAHYDROFURAN, AMBIENT): <1 mg/mL
APPROXIMATE SOLUBILITY ([1]; TETRAHYDROFURAN:WATER 50:50, AMBIENT): 24 mg/mL
APPROXIMATE SOLUBILITY ([1]; TRIFLUOROTOLUENE, AMBIENT): <1 mg/mL
solubility ([1]; water, 68 °C, water, thermodynamic from solid, WATER, 68 ° C., read-out: APPROXIMATE SOLUBILITY): < 3000 µg/mL
solubility ([1]; water, thermodynamic from solid, WATER, AMBIENT, read-out: APPROXIMATE SOLUBILITY): ≥ 1000 µg/mL
XRPD Result after stress [2, 6]: Form B
weight change [2, 6]: no substantial weight change
weight change ([2]; 75% RH, ambient temperature, 2 and 4 days, listed as B): 2 and 4 days: no weight
XRPD RESULT after mechanical stress ([4]; GRIND WITH MORTAR AND PESTLE, WATER, 1 MIN): B + SMALL PEAK
XRPD RESULT after mechanical stress ([4]; MILLING, 2,2,2-TRIFLUOROETHANOL, 10 MIN): B + LARGE PEAK
post-moisture balance XRPD (resulting material) [3]: Form B
post-moisture balance XRPD (resulting material) ([3]; listed as B): FORM B
weight loss upon initial equilibration [3]: about 0.6%
water corresponding to the mass gain on sorption ([3]; from 5% to 95% RH): about 1.2 molar equivalents of water
weight gain on sorption [3]: about 3.6%
water corresponding to the weight gain on sorption ([3]; listed as B): ~1.2 MOLES OF WATER FROM ~5 TO ~95%
weight gain on sorption ([3]; listed as B): ~3.6% WEIGHT GAIN, CORRESPONDING TO
weight loss on desorption [3]: about 3.6%
weight loss on desorption ([3]; listed as B): RH, ~3.2% WEIGHT LOSS FROM ~95 TO ~5%
SMILES: CC(C)(C)c1cc(NC(=O)Nc2ccc(-c3cn4c(n3)sc3cc(OCCN5CCOCC5)ccc34)cc2)no1 [Form B of the HCl salt of Compound B1, N-(5-tert-butyl-isoxazol-3-yl)-N′-{4-[7-(2-morpholin-4-yl-ethoxy)imidazo[2,1-b][1,3]benzothiazol-2-yl]phenyl}urea]
